{"source": "patent US12679849B2", "about": "“Macrocyclic compounds as STING agonists” (LUPIN LIMITED, priority 2019, dated 2026)", "key": {"IFNβ": {"system": "IFNβ", "test": "Cytokine (IFNβ) secretion in serum samples from CT-26 tumor bearing BALB/c mice", "assay_type": "in vivo, mouse", "details": "serum of CT-26 tumor-bearing BALB/c mice, 0.5 mg/kg, 3.5 h", "description": "Quantification of the Cytokine Secretion in Serum Samples from the CT-26 Tumor Bearing BALB/c Mice\nCT-26 tumor-bearing animals were administered with test compounds at the dose of 0.5 mg/kg, in a dose-volume of 5 ml/kg. Serum samples were collected at designated time points (3.5 h) and frozen at −80° C. till further estimation. Mouse serum samples were diluted appropriately with dilution buffer before estimation of IFNβ utilizing commercially available kits (VeriKine Mouse IFN Beta ELISA, PBL assay science, Catalog No 42400-2). Raw data values were corrected with the dilution factor and finally expressed in pg/mL."}, "Human STING": {"target": "T1, Human STING (Homo sapiens, UniProt Q86WV6, G230A/H232R/R293Q/R71H)", "T1 construct": "using human THP1-Blue™ ISG SEAP based reporter cell line (Invivogen); host or cells: THP1-Blue ISG (human monocytic THP-1 derived SEAP reporter line)", "T1 sequence (Q86WV6 whole entry R71H/G230A/H232R/R293Q)": "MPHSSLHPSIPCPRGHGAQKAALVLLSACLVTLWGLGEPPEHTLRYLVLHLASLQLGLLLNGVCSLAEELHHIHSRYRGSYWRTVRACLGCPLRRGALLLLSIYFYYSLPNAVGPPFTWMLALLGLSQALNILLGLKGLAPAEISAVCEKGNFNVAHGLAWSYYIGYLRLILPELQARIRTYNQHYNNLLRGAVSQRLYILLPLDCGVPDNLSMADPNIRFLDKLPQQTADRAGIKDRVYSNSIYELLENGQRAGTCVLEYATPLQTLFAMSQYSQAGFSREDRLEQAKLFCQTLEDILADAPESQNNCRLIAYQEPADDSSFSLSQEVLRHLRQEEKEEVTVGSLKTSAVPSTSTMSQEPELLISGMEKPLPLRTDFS", "test": "Stimulation of human STING signalling in THP1-Blue ISG SEAP reporter cell line", "assay_type": "cell-based", "details": "THP1-Blue ISG cells, 18-20 hours incubation", "description": "Stimulation of Human STING Signalling in THP1 Cell Line\nCompounds were tested for their STING activation potential using human THP1-Blue™ ISG SEAP based reporter cell line (Invivogen). Briefly, THP1-Blue ISG cells (100,000 cells/well) in 96 well plate were treated with varying concentrations of test and reference compounds and incubated at 37° C. with 5% CO2 for 18-20 hours. The control untreated cells were also set up. Post incubation, the cell supernatant was tested for SEAP (Secreted Embryonic Alkaline Phosphatase) activity using the QuantiBlue™ substrate reagent (Invivogen). The formation of blue coloured product was quantified by measuring absorbance at wavelength of 620 nm using PheraStar/Tecan reader. The average of duplicate readouts for each data point was plotted in GraphPad prism 6 against the concentration of test or reference compound to calculate EC50 value. The fold of SEAP induction or increase in luminescence at different data points was estimated against the un-stimulated cell control set."}}, "data": [{"smiles": "CCn1nc(C)cc1C(=O)Nc1nc2cc(C(N)=O)cc3c2n1C/C=C/Cn1c(NC(=O)c2cc(C)nn2CC)nc2cc(C(N)=O)cc(c21)OCC(N1C2CCC1COC2)CO3", "note": "[Compound 2, (E)-8-(3-oxa-8-azabicyclo[3.2.1]octan-8-yl)-1,15-bis(1-ethyl-3-methyl-1H-pyrazole-5-carboxamido)-8,9,16,19-tetrahydro-7H-6,10-dioxa-2,14,15a,19a-tetraazacyclopentadeca[3,2,1-cd:8,9,10-c′d′]diindene-4,12-dicarboxamide]", "values": [{"measurement": "IFNβ secretion", "setting": "IFNβ", "value": 28305, "unit": "pg/mL"}, {"measurement": "EC50", "setting": "Human STING", "value": "0.001 to 0.01", "unit": "µM"}]}, {"smiles": "CCn1nc(C)cc1C(=O)Nc1nc2cc(C(N)=O)cc3c2n1C/C=C/Cn1c(NC(=O)c2cc(C)nn2CC)nc2cc(C(N)=O)cc(c21)OCC(N1CC2CCC(C1)O2)CO3", "note": "[Compound 1, (E)-8-(8-oxa-3-azabicyclo[3.2.1]octan-3-yl)-1,15-bis(1-ethyl-3-methyl-1H-pyrazole-5-carboxamido)-8,9,16,19-tetrahydro-7H-6,10-dioxa-2,14,15a,19a-tetraazacyclopentadeca[3,2,1-cd:8,9,10-c′d′]diindene-4,12-dicarboxamide]", "values": [{"measurement": "IFNβ secretion", "setting": "IFNβ", "value": 4344, "unit": "pg/mL"}, {"measurement": "EC50", "setting": "Human STING", "value": "0.001 to 0.01", "unit": "µM"}]}, {"smiles": "CCn1nc(C)cc1C(=O)Nc1nc2cc(C(N)=O)cc3c2n1C/C=C/Cn1c(NC(=O)c2cc(C)nn2CC)nc2cc(C(N)=O)cc(c21)OCC(c1ccccn1)CO3", "note": "[Compound 36, (E)-1,15-bis(1-ethyl-3-methyl-1H-pyrazole-5-carboxamido)-8-(pyridin-2-yl)-8,9,16,19-tetrahydro-7H-6,10-dioxa-2,14,15a,19a-tetraazacyclopentadeca[3,2,1-cd:8,9,10-c′d′]diindene-4,12-dicarboxamidexamide]", "values": [{"measurement": "EC50", "setting": "Human STING", "value": "0.011 to 0.1", "unit": "µM"}]}, {"smiles": "CCn1nc(C)cc1C(=O)Nc1nc2cc(C(N)=O)cc3c2n1C/C=C/Cn1c(NC(=O)c2cc(C)nn2CC)nc2cc(C(N)=O)cc(c21)OCC(N1CCC(F)(F)CC1)CO3", "note": "[Compound 4, (E)-8-(4,4-difluoropiperidin-1-yl)-1,15-bis(1-ethyl-3-methyl-1H-pyrazole-5-carboxamido)-8,9,16,19-tetrahydro-7H-6,10-dioxa-2,14,15a,19a-tetraazacyclopentadeca[3,2,1-cd:8,9,10-c′d′]diindene-4,12-dicarboxamide]", "values": [{"measurement": "EC50", "setting": "Human STING", "value": "0.011 to 0.1", "unit": "µM"}]}]}
